For experiment [1], the system named is Mstn, Myd1, Myog, and Myf5 gene expression in C2C12 mouse-derived myotubes. Nature of the experiment: RT-qPCR of muscle cell differentiation-related gene expression. The format is cell-based. Conditions: dexamethasone 10 μM, beta-actin control, FIG. 7; for Mstn gene expression (marker of muscle growth inhibition): increased by dexamethasone; for Myd1 gene expression (marker of myogenic differentiation) / Myf5 gene expression (marker of myogenic differentiation) / Myog gene expression (marker of myogenic differentiation): reduced by dexamethasone. As for the experimental part: (§1) C2C12 mouse-derived myotubes treated with dexamethasone 10 μM were washed twice with PBS, and total RNA was extracted according to the user-recommended protocol of an RNA extraction kit (GeneAll RNA isolation kit, Seoul, South Korea). cDNA was synthesized from the extracted RNA and subjected to real time-quantitative polymerase chain reaction (RT-qPCR). POR analysis was performed according to the user-recommended cycling conditions of the analyzer (Applied Biosystems 7900 HT thermal cycler, Applied Biosystems). To determine the expression level of each mRNA, fold change values relative to the control were calculated using beta-actin as an endogenous control, and relative expression levels were compared.
Background: Real-time PCR tracks product formation cycle by cycle.

The subject of experiment [2] is C2C12 myotubes. Nature of the experiment: Oxidative stress (GSH content) and mitochondrial function in dexamethasone-treated myotubes. In kind it is cell-based, mouse. Conditions: 20 μM compound, 100 μM dexamethasone for 24 hours, FIG. 8; for glutathione (GSH) content: decreased by dexamethasone. As to the method: (§2) Cell culture and differentiation of myoblasts: C2C12 mouse (CRL1772; American type cell collection, USA) derived myoblasts were cultured in Dulbecco's Modified Eagle's Medium (DMEM) medium supplemented with 10 (v/v) % FBS, and after reaching 90% confluence, they were transferred to DMEM medium containing 2 (v/v) % horse serum and cultured for 7 days to differentiate into myotubes.
As in Example 4, C2C12 myoblasts were differentiated into myotubes, and then treated with 100 μM of dexamethasone for 24 hours to induce oxidative stress or mitochondrial dysfunction, and then treated with 20 μM of three compounds (catechol, 4-ethyl catechol, and methyl dihydroxycaffeate) isolated from the extract of Aralia Elata to determine their efficacy in ameliorating oxidative stress and mitochondrial dysfunction. […] Furthermore, the mitochondrial dysfunction induced by dexamethasone treatment was ameliorated by treatment with the present compound derived from the extract of Aralia Elata (FIG. 8).

Experiment [3] has as its system Ppargc1a, UCp3, Tomm20, and Tfam gene expression in C2C12 mouse-derived endodermal cells. Nature of the experiment: RT-qPCR of exercise performance-related gene expression. The format is cell-based. Conditions: dexamethasone 10 μM, beta-actin control, reduced by dexamethasone, FIG. 9. As for the experimental part: as §1, with “mouse-derived endodermal cells” for “mouse-derived myotubes”, “extracted RNA,” for “extracted RNA”, “(RT-qPCR). PCR” for “(RT-qPCR). POR”

Experiment [4] relates to Ppargc1a, UCp3, Tomm20, and Tfam gene expression in C2C12 mouse-derived cells. The experiment is described as above. Conditions: dexamethasone 10 μM, beta-actin control, reduced by dexamethasone, FIG. 9. The format is cell-based. As to the method: as §1, with “mouse-derived endodermal cells” for “mouse-derived myotubes”, “extracted RNA,” for “extracted RNA”, “(RT-qPCR). PCR” for “(RT-qPCR). POR”

Experiment [5] deals with mice in which sarcopenia was induced by administration of Dexamethasone. Nature of the experiment: Grip strength and body weight in dexamethasone-induced sarcopenia mouse model. In kind it is in vivo, C57BL/6J mice. The conditions noted are these: compared to the group treated only with Dexamethasone (25 mg/kg i.p., 2 weeks); oral once daily 4 weeks; AE 10, 50 or 100 mg/kg, S-23 25 mg/kg; FIG. 2. As for the experimental part:
The present inventors created a sarcopenia mouse model to confirm the effectiveness of Aralia Elata extract prepared in the above-described preparation example to treat or improve sarcopenia, and measured grip strength using the control mouse and the sarcopenia mouse model.
The mice used to confirm the efficacy of Aralia Elata extract were prepared through the following process.
The test substance was prepared in the form of a liquid suspension using 0.5% CMC and administered for 4 weeks. To correct for the placebo effect of 0.5% CMC and the weight loss effect due to administration stress, 0.5% CMC was orally administered daily to the vehicle control group. Two weeks after administration of the test substance, the experimental group was administered intraperitoneal injection of Dexamethasone for two weeks to induce sarcopenia, and the normal control group was administered saline solution by intraperitoneal injection. All mice were provided with the same AlN76 diet (Research Diets), and the test substances were administered for an additional 2 weeks for a total of 4 weeks. The dark: light cycle was maintained at 12-hour:12-hour intervals, and water was allowed to be consumed freely. […] (Dex: Dexamethasone sarcopenia-inducing substance (25 mg/kg), AE: Aralia Elata extract (10, 50, or 100 mg/kg)).

In experiment [6] the test system is C2C12 myotubes. Nature of the experiment: Myotube cell survival rate after dexamethasone-induced myoatrophy. The format is cell-based, mouse. The conditions noted are these: 20 μM compound; 100 μM dexamethasone for 24 hours; FIG. 5. As for the experimental part: as §2
C2C12 myoblasts were differentiated into myotubes, and then treated with 100 μM of dexamethasone for 24 hours to induce myoatrophy, and 20 μM of 13 compounds isolated from the extract (see Table 1) to determine the effect of alleviating myoatrophy.

Regarding `CCc1ccc(O)c(O)c1` [4-ethyl catechol], in experiment [1], the “Mstn gene expression (marker of muscle growth inhibition)” value was “decreased”, the “Myd1 gene expression (marker of myogenic differentiation)” value is “increased”, the “Myf5 gene expression (marker of myogenic differentiation)” value is “increased” and the “Myog gene expression (marker of myogenic differentiation)” value is listed as “increased”. Besides, in the experiment with C2C12 myotubes [2], the “mitochondrial dysfunction induced by dexamethasone treatment” value is “ameliorated” and the “glutathione (GSH) content” value is “increased again”. Besides, in experiment [3], the Tfam gene expression result is “increased”, the Tomm20 gene expression result is on record as “increased” and the UCp3 gene expression result is reported as “increased”. Besides, the Ppargc1a gene expression entry in experiment [4] is on record as “increased”.

With `C[C@](O)(COc1ccc(Cl)c(F)c1)C(=O)Nc1ccc(C#N)c(C(F)(F)F)c1` [Compound S-23], in experiment [5], the body weight entry is on record as “increased” and the grip strength entry was “increased”.

In the case of `Oc1ccccc1O` [Compound 3, Catechol], in experiment [1], the “Mstn gene expression (marker of muscle growth inhibition)” value is recorded as “decreased”, the “Myd1 gene expression (marker of myogenic differentiation)” value is given as “increased”, the “Myf5 gene expression (marker of myogenic differentiation)” value is recorded as “increased” and the “Myog gene expression (marker of myogenic differentiation)” value is given as “increased”. Besides, the “viability of myotubes reduced by dexamethasone treatment” value with C2C12 myotubes [6] was “significantly superior effect”. For the same molecule, in the experiment with C2C12 myotubes [2], the “mitochondrial dysfunction induced by dexamethasone treatment” value is reported as “ameliorated” and the “glutathione (GSH) content” value is “increased again”. In addition, in experiment [3], the Tfam gene expression result is listed as “increased”, the Tomm20 gene expression result is listed as “increased” and the UCp3 gene expression entry is on record as “increased”. Further, the Ppargc1a gene expression entry in experiment [4] was “increased”.

For the molecule `CCc1ccc(O)c(O)c1` [Compound 4, 4-ethyl catechol], in the experiment on C2C12 myotubes [6], the “viability of myotubes reduced by dexamethasone treatment” value is reported as “significantly superior effect”.

The values are drawn from patent publication US20240424043A1, “COMPOSITION FOR PREVENTING OR TREATING MUSCLE DISEASE COMPRISING ARALIA ELATA EXTRACT” (KOREA INSTITUTE OF SCIENCE AND TECHNOLOGY, priority 2023, published 2024).
